Measured values: US10166302B2, “Labeling composition for cancer lesion” (NATIONAL CANCER CENTER, priority 2012, dated 2019)

Tests used:
[1] = Signal intensity of near-infrared fluorescence of ICG-MAA complexes at various ICG and MAA mixing ratios; format: physicochemical; conditions: for Signal intensity of near-infrared fluorescence: MAA 0 mg/ml
[2] = 18 breast cancer patients (T. Kitai, et al., Breast Cancer, 12:211-215, 2005); cited from earlier work

Signal intensity of near-infrared fluorescence ([1]; ICG 9.0 μM): 289 | Signal intensity of near-infrared fluorescence ([1]; ICG 12.9 μM): 363 | Signal intensity of near-infrared fluorescence ([1]; ICG 25.8 μM): 466 | Signal intensity of near-infrared fluorescence ([1]; ICG 38.7 μM): 425 | Signal intensity of near-infrared fluorescence ([1]; ICG 51.6 μM): 399 | Signal intensity of near-infrared fluorescence ([1]; ICG 64.5 μM): 374 | Signal intensity of near-infrared fluorescence ([1]; ICG 77.4 μM): 332 | Signal intensity of near-infrared fluorescence ([1]; ICG 103 μM): 289 | Signal intensity of near-infrared fluorescence ([1]; ICG 258 μM): 139 | Signal intensity of near-infrared fluorescence ([1]; ICG 516 μM): 71 | Signal intensity of near-infrared fluorescence ([1]; ICG 774 μM): 39 | Signal intensity of near-infrared fluorescence ([1]; ICG 1032 μM): 30 | ICG concentration showing the highest value of signal intensity of near-infrared fluorescence ([1]; MAA was not treated): 25.8 µM
Structure (SMILES): CC1(C)C(/C=C/C=C/C=C/C=C2\N(CCCCS(=O)(=O)O)c3ccc4ccccc4c3C2(C)C)=[N+](CCCCS(=O)(=O)[O-])c2ccc3ccccc3c21 [ICG, indocyanine green]
Clinical safety [2]: safely used
